The record followed here is US7482008B1, “Human T cell reactive feline protein (TRFP) isolated from house dust and uses therefor” (Merck Patent GmbH, priority 1989, dated 2009).

One test concerns IgE. The test is described as follows: IgE binding of dimeric recombinant chain 1 and alkali treated TRFP.
The test system of another test is T cell. Put plainly: T cell reactivity of dimeric recombinant chain 1 and alkali treated TRFP. The format is cell-based.
Test [1] has as its system human IgE. The test is described as follows: SDS/PAGE Western immunoblot of human IgE binding, plasma from patient #417. To be noted: patient #417 plasma. How it is done: Western immunoblot analysis of the peptides produced in above was performed. The concentration of all protein samples (e.g., TRFP, recombinant chain 1 of TRFP, recombinant chain 2 of TRFP, peptide XYZ, peptide XZY, peptide YXZ, peptide YZX, peptide ZXY and peptide ZYX) for gel electrophoresis was determined by the BCA method (Pierce Co.). All protein samples were loaded on the gel at 5 μg/lane except TRFP at 10 μg/lane. Protein separation was carried out on a 15% acrylamide gel, and transfer was performed by electroblotting at 1.5 Amps for 1.5 hours onto nitrocellulose paper (Schleicher and Schuell, 0.1 microns) in a Hoeffer apparatus according to the protocol of Towbin, H., T. Stachlin, and J. Gordon, PNAS 76:4350 (1979). Proteins were rinsed in blot solution (25 mM Tris-HCl 7.5, 0.171 M NaCl and 0.5 ml/liter Tween 20). The blot was then blocked for one hour in blocking solution (1% milk in blot solution). Plasma from patient #417, used as a primary antibody source, was diluted in blocking solution to 10% and preabsorbed for 1.5 hours with unused nitrocellulose (2 cm×15 cm). The prepared human plasma was then incubated overnight on an orbital shaker with the protein blot section of interest. Following the first antibody incubation the blot section was washed three times, each wash involved a fifteen minute incubation in blot solution. The second antibody, specific for human IgE (biotinylated goat anti-human IgE, KPL Inc.), was diluted 1:2500 in blot solution and the incubation proceeded for two hours. Excess second antibody was subsequently removed by three 15 minute incubations with blot solution. ^125I Iodinated streptavidin (Amersham) was diluted 1:2500 in blot solution and incubated with blots for 1 hour, at 2 μCi in a 50 ml incubation volume. Blot sections were then washed with blot solution until the detectable radioactivity in the waste solution decreased to background levels. The blot section was then wrapped in saran wrap and exposed to film overnight with a cronex intensifying screen at −80° C.
On the technique in general: In western blotting, separated proteins are transferred to a membrane and probed.

The subject of test [2] is human IgE. Put plainly: ELISA of human IgE binding, plasma from patient #669. To be noted: patient #669 plasma. The method, then:
Corning assay plates (#25882-96) were coated with 10 μg/ml of each coating antigen (i.e., TRFP, chain 1 (recombinant chain 1 of TRFP), chain 2 (recombinant chain 2 of TRFP), peptide XYZ, peptide XZY, peptide YXZ, peptide YZX, peptide ZXY and peptide ZYX) listed in FIG. 34 at 50 μl/well and incubated overnight at 4° C. The coating antigens were removed and the wells were blocked with 0.5% gelatin in PBS, 200 μl/well for 2 hours at room temperature. Plasma from patient #669 was serially diluted with PBS-Tween 20 (PBS with 0.05% nonionic detergent Tween-20 Sigma, St. Louis Mo.) and 100 μl/well was added and incubated overnight at 4° C. (plasma dilutions are tested in duplicate). The second antibody (biotinylated goat anti-Human IgE, 1:1000, Kirkegaard & Perry Laboratories Inc. Gaithersburg, Md.), was added at 100 μl/well for one hour at room temperature. This solution was removed and streptavidin-HRPO, 1:10,000 (Southern Biotechnology Associates, Inc., Birmingham, Ala.) was then added at 100 μl/well for one hour at room temperature (all wells were washed three times with PBS-Tween between each incubation step). TMB Membrane Peroxidase Substrate system (Kirkegaard & Perry Laboratories) was freshly mixed, and added at 100 μl/well. The color was allowed to develop for 2-5 minutes. The reaction was stopped by the addition of 100 μl/well of 1M phosphoric acid. Plates were read on a Microplate EL 310 Autoreader (Biotek Instruments, Winooski, Vt.) with a 450 nm filter. The absorbance levels of duplicate wells were averaged.
(In general: ELISA stands for enzyme-linked immunosorbent assay.)

As for “recombinant chain 1 of TRFP in a dimeric form: recombinant chain 1 of TRFP in a dimeric form”, in the test on IgE, the IgE binding result is given as “markedly reduced IgE binding”. The T cell reactivity result in the test with T cell is given as “maintains T cell reactivity”.

In the case of “mild alkali treated TRFP: mild alkali treated TRFP”, in the test with IgE, the IgE binding entry is listed as “markedly reduced IgE binding”. In addition, the T cell reactivity result in the test with T cell is “maintains T cell reactivity”.

B1: peptide ZXY: recombinant peptide: peptide Z, peptide X and peptide Y linked in this order (protein)
chain: MGHHHHHHEFFFAVANGNELLLDLSLTKVNATEPERKRDVDLFLTGTPDEYVEQVAQYKALPVVLENARILKNCVDAKMTEEDKE
With B1, in the test on human IgE [1], the “IgE binding, Western immunoblot” value is “show IgE binding”. The “IgE binding, ELISA” value in the test on human IgE [2] is on record as “clear reactivity with IgE”.

B2: peptide XYZ: recombinant peptide: peptide X, peptide Y and peptide Z linked in this order (protein)
chain: MGHHHHHHLVPRGSKRDVDLFLTGTPDEYVEQVAQYKALPVVLENARILKNCVDAKMTEEDKEFFAVANGNELLLDLSLTKVNATEPER
Regarding B2, in the test on human IgE [1], the “IgE binding, Western immunoblot” value is recorded as “show IgE binding”. In the test with human IgE [2], the “IgE binding, ELISA” value is “slight signal”.
